One assay concerns the target MYCN hairpin-G4 DNA. As to the kind of experiment: FIA using compound fluorescence (Ex 340/Em 500 nm), titration with unlabeled MYCN G4 DNA. Format: binding, human. Conditions: 100 nM compound titrated with folded unlabeled MYCN G4. An outline of the steps: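 Compound at 100 nM final (5% DMSO) was titrated with serially diluted, pre-annealed unlabeled MYCN G4 DNA and incubated 30 min at room temperature. Intrinsic compound fluorescence (Ex 340/Em 500 nm) was normalised, and affinity was fitted to a one-site total model.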

For assay [1], the system named is 12 different G4 oligos as well as non-G4 oligos (dsDNA and ssDNA). Kind of assay: Small-scale DNA G4 microarray binding selectivity. As to conditions: B33 at 2.5 μM. The method, then:
In this example, a small-scale DNA G4 microarray containing 12 different G4 oligos as well as non-G4 oligos (dsDNA and ssDNA) was fabricated and tested (Table 4). To start with, a SA-coated glass surface was prepared. An amino-functionalized glass slide was firstly modified with a solution of N, N′-disuccinimidyl carbonate (DSC, 1.0 M) and N, N-diisopropylethylamine (DIPEA, 1.0 M) in DMF overnight at room temperature. After being washed successively with EtOH, Milli-Q water (5 min each) and dried with N2 gas, the slide was incubated with 1 mg/mL of SA solution for 12 h (overnight) in a 4° C. fridge, followed by blocking the surface with EA buffer for 30 minutes. Then, the slide was rinsed with PBS buffer and Milli-Q water, and dried b centrifugation (1,700 g, 2 min).
In parallel, biotin-labeled DNA/RNA oligos were prepared in annealing buffer resulting in 5 μM stock solutions, followed by annealing (according to above methods). Then all the oligo solutions were transferred into a 384-well plate. Next, the microarray printing was conducted by a robotic arrayer (Nanoprint, Arrayit, USA) with a humidity of 60%. After the microarray was fabricated, the slide was placed in a slide box with a piece of wet Kimwipe tissue and incubated at 4° C. for 2 h.
To incubate with the fluorescent compounds (compound B33, thiazole orange (“TO”), and amsacrine), the slide was thoroughly rinsed with PBST, PBS, and water to remove the unbounded oligos. Then, the slide was dried by centrifugation (1,700 g, 2 min) and quickly assembled with microarray gaskets (Agilent, USA), followed by loading the compound solutions. After 1 h incubation, the slide was washed and dried with the above-mentioned method. Finally, the microarray slide was imaged by a fluorescence scanner (Mapix) using green channel and the fluorescence intensities were quantified.

The subject of assay [2] is ~19,000 different G4 sequences, G4 and non-G4 controls. Kind of assay: High-density DNA oligo microarray (~19,000 G4 sequences) selectivity profiling. It counts as binding. As to conditions: 500 nM compound. The source says: To further characterize the binding selectivity of compound B33, high-density and large-scale DNA microarrays that contained ˜19,000 different G4 sequences were fabricated and used. In this microarray, 340 reported G4s (G-rich sequences) as well as 280 non-G4s (C-rich sequences) were designed as positive and negative controls. Additionally, over 17,000 canonical G4 oligos with short loops (1˜7 nt) were also designed and synthesized by varying the loop sequences to meet the diversity of G4 structure. After folding the surface-grafted DNA oligos in high concentration of KCl buffer, TO and compound B33 solutions (500 nM) were incubated with the microarray, respectively. Then the slides were thoroughly washed, dried, and imaged by a fluorescent scanner using green channel. […] By quantifying the fluorescence intensity of each spot, the bindings of TO and compound B33 were further investigated. The kernel density estimate (KDE) plot and violin plot represented the distribution of the binding signals throughout the whole microarray. […] Compound B33 spectrum spanned a much wider range than that of TO. In the violin plot (FIG. 37C), the mean SNR value of TO group was 12, much higher than that of the compound B33 group. […] Furthermore, the selectivity of the two compounds were quantitatively profiled by using Gini coefficient. Gini coefficient, initially used as an economic concept, has been applied in profiling the selectivity/promiscuity of kinase inhibitors as well as RNA binders. A higher Gini value represents a better selectivity of a compound (Gini coefficient>0.75 is considered an excellent selectivity). The Gini coefficient based on the SNRs in the microarray.

Another assay concerns BCL2 HP-G4. As to the kind of experiment: FIA binding test with BCL2 HP-G4 (parallel structure). As to the method:
In this study, FIA was used for validating the bindings between certain bivalent and MYCN G4 oligos. To measure the binding affinity, a solution of each compound was prepared in triplicate in a 96 well-plate (Costar, black side clear bottom), resulting in a final concentration of 100 nM (5% final DMSO in the working solution). Unlabeled MYCN G4 DNA was folded based on the above-mentioned annealing method, then added into the well plate resulting in different concentrations by a seral dilution. The plate was incubated at room temperature for 30 min, followed by centrifuging at 500 rpm for 2 minutes. The fluorescence intensity was then quantitatively recorded by a Synergy Mx microplate reader (BioTek) at Ex 340 nm/Em 500 nm. The fluorescence intensities were then normalized, and the binding affinity was calculated by fitting the curve using one-site total model in GraphPad Prism 8.3.1 software.
In addition to the DMS-footprinting study, the bivalent binding mode of compound B33 toward MYCN hairpin-G4 was also investigated by comparing HP-G4s with different folding types. Four reported HP-G4s with parallel structure (BCL2), (3+1) hybrid structure (HIV and PIM1-form1), and (2+2) chair-type structure (PIM1-form2) were examined by FIA binding test using compound B33 (FIGS. 41A, 41B, 42A, 42B, 43A, 43B, 44A, and 44B). […]

Assay [3] deals with MYCNOS001 and MYCNOS002 transcripts. Kind of assay: qRT-PCR of MYCNOS transcripts in NBEB cells. Format: cell-based. As to the method:
To examine the effects of G4-binding compounds on NBEB cells, live-cell imaging was performed using an Incucyte interface (described below). NBEB (5K/well), cells were seeded into 96-well plates in triplicate, treated with compound MY-8 at various concentrations (0-45 μM), and cultured until control wells reached confluence. […] To validate cell viability, a Trypan Blue exclusion test was performed following treatment at 48 h and 96 h post treatment and the proportion of live versus dead cells was calculated using a hemocytometer.
Quantitative RT-PCR. Total RNA was extracted from NBEB cells according to manufacturer's instructions (RNeasy Plus Mini Extraction kit (#74134) (Qiagen, CA). RNA (1 μg) was reverse transcribed into cDNA using the cDNA synthesis High-Capacity RNA-to-cDNA™ Kit. Quantitative PCR was performed using Fast SYBR™ Green Master Mix according to the manufacturer's protocol. Beta-actin was used as a housekeeping gene. Relative expression was calculated using the 2(−ΔCt) method. The qPCR primer sequences can be found in supplementary materials.
For orientation: Real-time PCR tracks product formation cycle by cycle.

[4] abbreviates: NBEB cells, 24, 36, 48 h, higher concentrations.

SMILES strings stand for the structures.

Usually Kd stands for the concentration at which binding is half-saturated. Consider `COc1ccc(-c2noc(-c3ccc(NCCCNc4c5ccc(Cl)cc5nc5ccc(OC)cc45)nn3)n2)cc1` [B33, N^1-(6-chloro-2-methoxyacridin-9-yl)-N^3-(6-(3-(4-methoxyphenyl)-1,2,4-oxadiazol-5-yl)pyridazin-3-yl)propane-1,3-diamine], for which the Kd on MYCN hairpin-G4 DNA came to 66 ± 7 nM; on BCL2 HP-G4 (FIA) it was 258 ± 39 nM. The “binding to dsDNA/ssDNA in microarray” value in assay [1] is recorded as “no binding to dsDNA/ssDNA was observed”. In addition, the “binding to hairpin containing G4 DNAs hTERT and BCL2 in microarray” value in assay [1] was “didn't show fluorescence”. The “binding pattern in G4 microarray” value in assay [1] (fluorescent compound incubated 1 h) is reported as “only MYCN spots lighted up”. Moreover, the “binding to the 620 G4 and non-G4 controls” value in assay [2] (340 G4s and 280 non-G4s) is “some binding to G4s while there was no binding observed in non-G4 group”. For the same compound, the Gini coefficient in assay [2] (based on SNRs in the microarray) came to 0.628. In addition, the “fold weaker than MYCN HP-G4” value in the assay with BCL2 HP-G4 (BCL2 HP-G4 vs MYCN HP-G4) is on record as roughly 4 times.
`COc1ccc(-c2noc(-c3ccc(NCCCN4CCCCCC4)nn3)n2)cc1` [MY-8, N-(3-(azepan-1-yl)propyl)-6-(3-(4-methoxyphenyl)-1,2,4-oxadiazol-5-yl)pyridazin-3-amine]: in assay [3] (setting [4]), the “MYCNOS001 mRNA level” value was “clear decreases of mRNA level” and the “MYCNOS002 mRNA level” value is given as “clear decreases of mRNA level”. For the same compound, in assay [3] (NBEB cells, time course), the “onset of MYCNOS002 decrease” value is on record as “decreased as early as 24 h”.
